Target: PAN endonuclease (Influenza A virus, UniProt C3W5S0)
Assay: FRET-based enzymatic assay of PAN endonuclease inhibition
Type: biochemical

Compound | enzymatic inhibition upon light irradiation | IC50 (read-out: IC50 (dark)) [µM]
[Ru(2,2´-bipyridine)2(pyridine)2][Cl]2 [Compound 9] | negligible | 
[Cl][Ru][Cl].c1ccc(-c2ccccn2)nc1.c1ccc(-c2ccccn2)nc1 [Compound 2, Ru(2,2´-bipyridine)2(Cl)2] |  | > 100

— article PMC7944940 (Dalton transactions (Cambridge, England : 2003), 2021)
